According to ChEMBL document CHEMBL1201862, “PubChem BioAssay data set” (2004):
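Following 48 hours of exposure in 96-well plates, responses at five concentrations were used to interpolate endpoints linearly. GI50 is the concentration that inhibits growth by half.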 Activity calls are given as the source filed them. No stated cut-off is given here; in the data, active = GI50 up to about 1.1 µM and inactive = higher.

Legend:
Assay in all cases: NCI-60 cell line screen, 48 h
786-0 = tested on: 786-0
A498 = tested on: A498
A549 = tested on: A549
ACHN = tested on: ACHN
CAKI-1 = tested on: CAKI-1
CCRF-CEM = tested on: CCRF-CEM
COLO 205 = tested on: COLO 205
DU-145 = tested on: DU-145
EKVX = tested on: EKVX
HCC 2998 = tested on: HCC 2998
HCT-116 = tested on: HCT-116
HCT-15 = tested on: HCT-15
HL-60 = tested on: HL-60
HOP-62 = tested on: HOP-62
HOP-92 = tested on: HOP-92
HT-29 = tested on: HT-29
Hs-578T = tested on: Hs-578T
IGROV-1 = tested on: IGROV-1
K562 = tested on: K562
KM12 = tested on: KM12
LOX IMVI = tested on: LOX IMVI
M14 = tested on: M14
MCF7 = tested on: MCF7
MDA-MB-231 = tested on: MDA-MB-231
MDA-MB-435 = tested on: MDA-MB-435
MDA-N = tested on: MDA-N
MOLT-4 = tested on: MOLT-4
Malme-3M = tested on: Malme-3M
NCI-H226 = tested on: NCI-H226
NCI-H23 = tested on: NCI-H23
NCI-H460 = tested on: NCI-H460
NCI-H522 = tested on: NCI-H522
NCI/ADR-RES = tested on: NCI/ADR-RES
OVCAR-3 = tested on: OVCAR-3
OVCAR-4 = tested on: OVCAR-4
OVCAR-5 = tested on: OVCAR-5
OVCAR-8 = tested on: OVCAR-8
PC-3 = tested on: PC-3
RPMI-8226 = tested on: RPMI-8226
RXF 393 = tested on: RXF 393
SF-268 = tested on: SF-268
SF-295 = tested on: SF-295
SF-539 = tested on: SF-539
SK-MEL-28 = tested on: SK-MEL-28
SK-MEL-2 = tested on: SK-MEL-2
SK-MEL-5 = tested on: SK-MEL-5
SK-OV-3 = tested on: SK-OV-3
SN12C = tested on: SN12C
SNB-19 = tested on: SNB-19
SNB-75 = tested on: SNB-75
SR = tested on: SR
SW-620 = tested on: SW-620
T47D = tested on: T47D
TK-10 = tested on: TK-10
U-251 = tested on: U-251
UACC-257 = tested on: UACC-257
UACC-62 = tested on: UACC-62
UO-31 = tested on: UO-31
BT-549 = tested on: BT-549

CC(=O)c1sc2c(c1OC(=O)c1ccc(Cl)cc1Cl)c(=O)n(-c1ccccc1)c(=S)n2-c1ccccc1
GI50 (786-0): 0.47 µM (active)
GI50 (A498): 0.286 µM (active)
GI50 (A549): 9.98 µM (inactive)
GI50 (ACHN): 0.321 µM (active)
GI50 (CAKI-1): 1.43 µM (inactive)
GI50 (CCRF-CEM): 0.26 µM (active)
GI50 (COLO 205): 1.07 µM (active)
GI50 (DU-145): 21.7 µM (inactive)
GI50 (EKVX): 6.55 µM (inactive)
GI50 (HCC 2998): 6.37 µM (inactive)
GI50 (HCT-116): 2.96 µM (inactive)
GI50 (HCT-15): 2.18 µM
GI50 (HL-60): 3.81 µM (inactive)
GI50 (HOP-62): 1.41 µM (inactive)
GI50 (HOP-92): 0.78 µM (active)
GI50 (HT-29): 0.28 µM (active)
GI50 (Hs-578T): 0.1 µM (active)
GI50 (IGROV-1): 5.51 µM (inactive)
GI50 (K562): 4.32 µM (inactive)
GI50 (KM12): 4.14 µM (inactive)
GI50 (LOX IMVI): 0.321 µM (active)
GI50 (M14): 0.303 µM (active)
GI50 (MCF7): 8.55 µM (inactive)
GI50 (MDA-MB-231): 0.861 µM (active)
GI50 (MDA-MB-435): 1 µM (active)
GI50 (MDA-N): 0.741 µM (active)
GI50 (MOLT-4): 0.14 µM (active)
GI50 (Malme-3M): 0.252 µM (active)
GI50 (NCI-H226): 0.258 µM (active)
GI50 (NCI-H23): 5.83 µM (inactive)
GI50 (NCI-H460): 1.99 µM (inactive)
GI50 (NCI-H522): 1.2 µM (inactive)
GI50 (NCI/ADR-RES): 1.05 µM (active)
GI50 (OVCAR-3): 4.14 µM (inactive)
GI50 (OVCAR-4): 13.2 µM (inactive)
GI50 (OVCAR-5): 0.64 µM (active)
GI50 (OVCAR-8): 0.418 µM (active)
GI50 (PC-3): 0.608 µM (active)
GI50 (RPMI-8226): 0.213 µM (active)
GI50 (RXF 393): 0.382 µM (active)
GI50 (SF-268): 0.552 µM (active)
GI50 (SF-295): 0.267 µM (active)
GI50 (SF-539): 0.251 µM (active)
GI50 (SK-MEL-28): 0.475 µM (active)
GI50 (SK-MEL-2): 0.264 µM (active)
GI50 (SK-MEL-5): 1.8 µM (inactive)
GI50 (SK-OV-3): 0.3 µM (active)
GI50 (SN12C): 0.369 µM (active)
GI50 (SNB-19): 0.673 µM (active)
GI50 (SNB-75): 0.472 µM (active)
GI50 (SR): 0.501 µM (active)
GI50 (SW-620): 3.97 µM (inactive)
GI50 (T47D): 9.27 µM (inactive)
GI50 (TK-10): 4.57 µM (inactive)
GI50 (U-251): 0.342 µM (active)
GI50 (UACC-257): 3.88 µM (inactive)
GI50 (UACC-62): 10.8 µM (inactive)
GI50 (UO-31): 0.347 µM (active)

O=S(=O)(OI(O)CC(F)(F)F)C(F)(F)F
GI50 (786-0): > 100 µM (inactive)
GI50 (A498): > 100 µM (inactive)
GI50 (A549): > 100 µM (inactive)
GI50 (ACHN): > 100 µM (inactive)
GI50 (BT-549): > 100 µM (inactive)
GI50 (CAKI-1): > 100 µM (inactive)
GI50 (CCRF-CEM): > 100 µM (inactive)
GI50 (COLO 205): > 100 µM (inactive)
GI50 (DU-145): > 100 µM (inactive)
GI50 (EKVX): > 100 µM (inactive)
GI50 (HCC 2998): > 100 µM (inactive)
GI50 (HCT-116): > 100 µM (inactive)
GI50 (HCT-15): > 100 µM
GI50 (HL-60): > 100 µM (inactive)
GI50 (HOP-62): > 100 µM (inactive)
GI50 (HOP-92): > 100 µM (inactive)
GI50 (HT-29): > 100 µM (inactive)
GI50 (IGROV-1): > 100 µM (inactive)
GI50 (K562): > 100 µM (inactive)
GI50 (KM12): > 100 µM (inactive)
GI50 (LOX IMVI): > 100 µM (inactive)
GI50 (M14): > 100 µM (inactive)
GI50 (MCF7): > 100 µM (inactive)
GI50 (MDA-MB-231): > 100 µM (inactive)
GI50 (MDA-MB-435): > 100 µM (inactive)
GI50 (MOLT-4): > 100 µM (inactive)
GI50 (NCI-H226): > 100 µM (inactive)
GI50 (NCI-H23): > 100 µM (inactive)
GI50 (NCI-H460): > 100 µM (inactive)
GI50 (NCI-H522): > 100 µM (inactive)
GI50 (NCI/ADR-RES): > 100 µM (inactive)
GI50 (OVCAR-3): > 100 µM (inactive)
GI50 (OVCAR-4): > 100 µM (inactive)
GI50 (OVCAR-5): > 100 µM (inactive)
GI50 (OVCAR-8): > 100 µM (inactive)
GI50 (PC-3): > 100 µM (inactive)
GI50 (RPMI-8226): > 100 µM (inactive)
GI50 (RXF 393): > 100 µM (inactive)
GI50 (SF-268): > 100 µM (inactive)
GI50 (SF-295): > 100 µM (inactive)
GI50 (SF-539): > 100 µM (inactive)
GI50 (SK-MEL-28): > 100 µM (inactive)
GI50 (SK-MEL-2): > 100 µM (inactive)
GI50 (SK-MEL-5): > 100 µM (inactive)
GI50 (SK-OV-3): > 100 µM (inactive)
GI50 (SN12C): > 100 µM (inactive)
GI50 (SNB-75): > 100 µM (inactive)
GI50 (SR): > 100 µM (inactive)
GI50 (SW-620): > 100 µM (inactive)
GI50 (T47D): > 100 µM (inactive)
GI50 (TK-10): > 100 µM (inactive)
GI50 (U-251): > 100 µM (inactive)
GI50 (UACC-257): > 100 µM (inactive)
GI50 (UACC-62): > 100 µM (inactive)
GI50 (UO-31): > 100 µM (inactive)
